Data as given in patent US11773086B2, “Fungal modulators” (TRUSTEES OF BOSTON UNIVERSITY, priority 2020, dated 2023).

Key:
C. auris efflux = test: Nile red accumulation assay (flow cytometry); type: cell-based, Candida auris
Experimental: FIGS. 5A, 5B and 6 illustrate that azoffluxin increases fluconazole (FLC) bioavailability by inhibiting Cdr1-mediated efflux in C. auris. FIG. 5A show C. auris strains grown to exponential phase and treated with 50 μM azoffluxin for 10 minutes when indicated, followed by addition of Nile red for 20 minutes. Cells were then imaged on the DIC and DsRed channels at equivalent exposure times. FIG. 5B: depicts a flow cytometer and histograms of the cells, showing the fluorescence on the PE channel per event for ˜20,000 events. […] FIG. 6 illustrates azoffluxin increases fluconazole (FLC) bioavailability by inhibiting Cdr1-mediated efflux in C. auris. Dose response assays were conducted with a C. auris parental strain, a strain with the efflux pump gene CDR1 deleted, and a strain with the efflux pump CDR4-1 deleted. FLC was titered in a two-fold dilution on the x-axis in the absence and presence of 50 μM azoffluxin. Growth was measured at 48 hours using OD600 and normalized to a no drug control well (see color bar).
Cellular efflux was determined by measuring Nile red accumulation, as previously described. Cells were subcultured from an OD600 0.1 in YPD for 4 hours until exponential phase was reached. […] To quantify fluorescence, a CytoFlex Flow Cytometer (Beckman Coulter) was used. […] Each sample was run using the CytExpert Software until ˜20,000 events had been recorded. […]

C. auris = test: Intracellular fluconazole and azoffluxin detection by LC-MS; type: cell-based, Candida auris; conditions: combination treatment vs high fluconazole alone, 1 hour
From the text: FIGS. 3A-3B, and 4A-4B illustrate azoffluxin increases fluconazole (FLC) bioavailability by inhibiting Cdr1-mediated efflux in C. auris, as described above. FIG. 3A depicts the relative abundance of specific sterols determined in C. auris after an 18-hour treatment with the respective compounds (⋅ indicates combo treatment concentrations) using LC-MS. Values are plotted relative to the internal standard of cholesterol and error bars indicate standard deviation between technical triplicates. Significance was determined by an unpaired student t-test of each condition to untreated, (*) indicates a p-value<0.05 and (**) indicates a p-value<0.01. FIG. 3B depicts the intracellular concentrations of FLC and azoffluxin measured after treatment for 1 hour (conditions as in FIG. 3A) Error bars indicate standard deviation between technical triplicates. Significance was determined by an unpaired student t-test, (**) indicates a p-value<0.01. FIG. 4A depicts the quantified relative expression of a panel of putative efflux pumps in C. auris Ci6684. Expression of CDR1 (B9J08_000164), MDR1 (B9J08_003981), CDR4-1 (B9J08_000479), CDR4-2 (B9J08_002451), SNQ2-1 (B9J08_001125), and SNQ2-2 (B9J08_004452) was measured by RT-qPCR. […] FIG. 4B depicts expression of CDR1 (B9J08_000164) and CDR4-1 (B9J08_000479) measured by quantitative real-time PCR (RT-qPCR). […]

[1] = tested on: HEK293 cancer cells that overexpress the efflux pump MDR1; test: Doxorubicin cytotoxicity with azoffluxin; type: cell-based; conditions: dose response and single concentration
From the text: Dose response (FIG. 23A) and single concentration (FIG. 23B).

## C=C(C)C[C@@H](O)COc1cc2c(cc1C1(c3cc4c(cc3OC[C@H](O)CC(=C)C)OCO4)C(=O)Nc3cc(F)ccc31)OCO2 [CMLD012336]
C. auris efflux; 50 μM azoffluxin, C. auris Ci6684
  increase in relative cell-associated Nile red signal: 42 fold
C. auris efflux; Clade III isolates B11221 and B11222
  increase in Nile red accumulation: 36-40 fold
C. auris
  increase in intracellular fluconazole: ~2.5 fold
[1]
  cytotoxicity of doxorubicin: enhances cytotoxicity of doxorubicin
